Values after ≈ are worked out from the molar mass of the structure shown.
What was measured:
[1] = tested on: SCC2095 (oral squamous cell carcinoma cell line); assay: Anti-proliferation MTT assay in SCC2095 cell line; format: cell-based, human
SCC2095 cells = assay: Cellular uptake / intracellular accumulation in SCC2095 cells; format: in vitro ADME, human; conditions: SCC2095 cells incubated with GS409, at different incubation time (2 or 4 hours)
Caco-2 cell monolayer = assay: Transport study in Caco-2 cell culture model; format: in vitro ADME, human; conditions: translated from Caco-2 permeability; ref Artursson & Karlsson, 1991
[2] = SCC2095 cell line, MTT, 48 hours incubation

SMILES	IC50 [1, 2] [µg/mL]	IC50 ([1]; Homo sapiens, 48 h) [µg/mL]	also measured
O=c1[nH]cc(F)c(=O)[nH]1 [5-Fu (positive control), reference compound]	28.61 (≈ 220 µM)		
Oc1ccc2c(c1)OC[C@H]1c3cc4c(cc3O[C@@H]21)OCO4 [Maackiain, maackiain]		86.3 (≈ 304 µM)	intracellular accumulation among the 9 components (SCC2095 cells): relatively high
O=C1CCC[C@@H]2[C@H]3CCCN4CCC[C@@H](CN12)[C@@H]34 [Matrine, matrine]		> 100	
OC[C@H]1O[C@@H](Oc2ccc3c(c2)OC[C@H]2c4cc5c(cc4O[C@@H]32)OCO5)[C@H](O)[C@@H](O)[C@@H]1O [Trifolirhizin, trifolirhizin]		> 100	

More lines, main results first:

IC50 [1, 2] [µg/mL]	IC50 ([1]; Homo sapiens, 48 h) [µg/mL]	SMILES	also measured
>100		CC1(C)O[C@H]2CC(=O)OC[C@@]23C1=C(O)C(=O)[C@]1(C)[C@@H]3CC[C@@]2(C)[C@H](c3ccoc3)OC(=O)[C@H]3O[C@]321 [Evodol, evodol]	
	28.6 (≈ 123 µM)	CC1=C2C(=O)O[C@@H](c3ccoc3)[C@]2(C)CCC1 [Fraxinellone, fraxinellone]	intracellular accumulation among the 9 components (SCC2095 cells): relatively high; absorption in the human intestine following oral administration (Caco-2 cell monolayer): more than 70%
	> 100	CC1(C)O[C@H]2CC(=O)OC[C@]23[C@H]2CC[C@@]4(C)[C@H](c5ccoc5)OC(=O)[C@H]5O[C@]54[C@]2(C)C(=O)C[C@@H]13 [Limonin, limonin]	
	> 100	CC1(C)OC(=O)C=C[C@]2(C)[C@H]3CC[C@@]4(C)[C@H](c5ccoc5)OC(=O)[C@H]5O[C@]54[C@]3(C)C(=O)C[C@@H]12 [Obacunone, obacunone]	
>100		CC1(C)O[C@H]2CC(=O)OC[C@]23[C@H]2CC[C@@]4(C)[C@H](c5ccoc5)OC(=O)[C@H]5O[C@]54[C@]2(C)[C@@H](O)C(=O)[C@@H]13 [Rutaevine, rutaevine]	

— publication PMC4541799 (Journal of ethnopharmacology, 2015)
